# In US3980779A, “3-Amino-1,2,4-benzotriazine-1,4-di-N-oxide compositions and method of using same” (Bayer Aktiengesellschaft, priority 1972, dated 1976):
# Read-outs that look alike come from different tables or passages of the source.
# Assays:
# E. coli C 165 = assay: MIC plate test; format: cell-based, Escherichia coli; details: 37°C, 24 hours
# From the text: (§1) The antimicrobial activity of these compounds can be conveniently observe in in vitro and in vivo models. For example, their minimum inhibitory concentration (MIC) can be determined in the plate test on a complete nutrient base of the following composition: 10 g of proteose-peptone, 10 g of veal infusion, 2 g of dextrose, 3 g of sodium chloride, 2 g of disodium phosphate, 1 g of sodium acetate, 0.01 g of adenine sulfate, 0.01 g of guanine hydrochloride, 0.01 g of uracil, 0.01 g of xantine, 12 g of agar-agar and 1 liter of water. With an incubation temperature of 37°C and an incubation time of 24 hours, the following typical values can be observed: […]
# E. coli A 261 = assay: MIC plate test; format: cell-based, Escherichia coli; details: 37°C, 24 hours
# From the text: as §1
# E.coli C 165 = assay: in vivo infection of white mice, subcutaneous administration; details: 15 minutes before intraperitoneal infection, 24 hours later
# From the text: (§2) The above in vitro data are confirmed in in vivo infections.
# Klebsiella 63 = assay: MIC plate test; format: cell-based; details: nutrient medium, 37°C, 24 hours
# From the text: as §1
# Klebsiella 8085 = assay: MIC plate test; format: cell-based; details: nutrient medium, 37°C, 24 hours
# From the text: as §1
# [1] = tested on: Pseudomonas aeruginosa BONN; assay: MIC plate test; format: cell-based; details: nutrient medium, 37°C, 24 hours
# From the text: as §1
# Proteus vulgaris 1017 = assay: MIC plate test; format: cell-based; details: nutrient medium, 37°C, 24 hours
# From the text: as §1
# Streptococcus pyogenes W = assay: MIC plate test; format: cell-based; details: nutrient medium, 37°C, 24 hours
# From the text: as §1
# [2] = tested on: Staphylococcus aureus 133; assay: MIC plate test; format: cell-based; details: nutrient medium, 37°C, 24 hours
# From the text: as §1
# Pseudomonas aeruginosa W = assay: MIC plate test; format: cell-based; details: nutrient medium, 37°C, 24 hours
# From the text: as §1
# [3] = tested on: Staphylococcus aureus 133; assay: in vivo infection of white mice, subcutaneous administration; details: 15 minutes before intraperitoneal infection, 24 hours later
# From the text: as §2
# [4] = growth promoting activity and fodder utilisation in chicken; format: in vivo; details: 10 PPM in fodder
# Procedure: The growth promoting activity of the new compounds and their effectiveness in improving the fodder utilisation may be illustrated by the following data:
# Test animals : chicken (kept in cages, with complete fodder and water ad libitum)
# The active ingredient is mixed in a finely divided form to the fodder according to customary methods. The tests were performed with 12 animals in each tested group.
# Active ingredient: compound of Example 4
# Concentration of the active ingredient in the fodder: […]
compound,measurement,setting,value
"Nc1n[n+]([O-])c2ccccc2[n+]1[O-] [Compound A, 3-amino-1,2,4-benzotriazine-1,4-di-N-oxide]",MIC,"E. coli C 165; Escherichia coli, C165, nutrient medium, read-out: MIC",4 µg/mL
same,MIC,"E. coli A 261; Escherichia coli, A261, nutrient medium, read-out: MIC",4 µg/mL
same,ED50,"E.coli C 165; Escherichia coli, C165, sc, read-out: ED50",20 mg/kg
same,MIC,Klebsiella 63; read-out: MIC,4 µg/mL
same,MIC,Klebsiella 8085; read-out: MIC,2 µg/mL
same,MIC,[1]; read-out: MIC,8 µg/mL
same,MIC,Proteus vulgaris 1017; read-out: MIC,2 µg/mL
same,MIC,Streptococcus pyogenes W; read-out: MIC,32 µg/mL
same,MIC,[2]; read-out: MIC,16 µg/mL
same,MIC,Pseudomonas aeruginosa W; read-out: MIC,64 µg/mL
"isomeric mixture of 6-chloro- and 7-chloro-3-amino-1,2,4-benzotriazine-1,4-di-N-oxide [Compound B]",MIC,E. coli C 165; nutrient medium,8 µg/mL
same,MIC,E. coli A 261; nutrient medium,8 µg/mL
same,ED50,[3],250 mg/kg
same,MIC,Klebsiella 63,8 µg/mL
same,MIC,Klebsiella 8085,1 µg/mL
same,MIC,[1],128 µg/mL
same,MIC,Proteus vulgaris 1017,4 µg/mL
same,MIC,Streptococcus pyogenes W,8 µg/mL
same,MIC,[2],8 µg/mL
same,MIC,Pseudomonas aeruginosa W,128 µg/mL
"isomeric mixture of 6-methoxy and 7-methoxy-3-amino-1,2,4-benzotriazine-1,4-di-N-oxide [Compound C]",Consumption of fodder in relation to the control group,[4]; week 0,100%
same,Weight increase in relation to the control group,[4]; week 0,100%
same,weight increase (all animals),[4]; week 0,75 gram
same,Consumption of fodder in relation to the control group,[4]; week 1,85.7%
same,Weight increase in relation to the control group,[4]; week 1,102.8%
same,weight increase (all animals),[4]; week 1,148.4 gram
same,Consumption of fodder in relation to the control group,[4]; week 2,90.4%
same,Weight increase in relation to the control group,[4]; week 2,109.0%
same,weight increase (all animals),[4]; week 2,276.7 gram
same,Consumption of fodder in relation to the control group,[4]; week 3,93.4%
same,Weight increase in relation to the control group,[4]; week 3,105.8%
same,weight increase (all animals),[4]; week 3,475.0 gram
same,Consumption of fodder in relation to the control group,[4]; week 4,98.5%
same,Weight increase in relation to the control group,[4]; week 4,110.4%
same,weight increase (all animals),[4]; week 4,761.8 gram
same,Consumption of fodder in relation to the control group,[4]; week 5,101.1%
same,Weight increase in relation to the control group,[4]; week 5,106.4%
same,weight increase (all animals),[4]; week 5,1019.1 gram
same,Consumption of fodder in relation to the control group,[4]; week 6,92.2%
same,Weight increase in relation to the control group,[4]; week 6,106.0%
same,weight increase (all animals),[4]; week 6,1296.4 gram
same,MIC,E. coli C 165; nutrient medium,2 µg/mL
same,MIC,E. coli A 261; nutrient medium,2 µg/mL
same,ED50,E.coli C 165,25 mg/kg
same,ED50,[3],40 mg/kg
same,MIC,Klebsiella 63,2 µg/mL
same,MIC,Klebsiella 8085,1 µg/mL
same,MIC,[1],32 µg/mL
same,MIC,Proteus vulgaris 1017,1 µg/mL
same,MIC,Streptococcus pyogenes W,4 µg/mL
same,MIC,[2],4 µg/mL
same,MIC,Pseudomonas aeruginosa W,64 µg/mL
